Measured values as given in patent US20230257374A1, “NOVEL KRAS G12C PROTEIN INHIBITOR, PREPARATION METHOD THEREFOR, AND USE THEREOF” (INNOVENT BIOLOGICS (SUZHOU) CO., LTD., priority 2019, published 2023).
One block for each compound: values may come before it.

Key:
in vitro = conditions: microsomes, pH 7.4
Protocol: To examine the in vitro metabolic stability of the test compounds in liver microsomes of different species, representative compounds were selected, and their stability was evaluated by measuring the concentration of the test compounds in the incubation system using LC/MS/MS and calculating their intrinsic clearance in the microsome system.
The method is specifically as follows: each compound was first dissolved in DMSO to prepare a 200 μM working solution and added to the system solution at the time of testing to form a solution with a final concentration of 1 μM.
The microsomes were stored in a −80° C. freezer.
Preparation of incubation system: an incubation system was prepared as described in the table below.
25 μL, of NADPH or phosphate buffered saline was transferred to the incubation system described above, and 2 μL, of 200 μM of the test compound or verapamil was added. The sample with NADPH added was prepared in duplicate; the NADPH negative sample was prepared in single parallel. 30 μL, of suspension was taken at 0.5, 5, 15, 30 and 60 minutes. The reaction system was terminated by adding 180 μL, of acetonitrile containing an internal standard and vortexed for 10 min. […] 100 μL, of the supernatant was transferred to a feeding plate, and 100 μL, of purified water was added. The mixture was well mixed for UPLC-MS/MS analysis.
The results based on the data were obtained by calculation according to the peak area ratio, and the peak area was detected through an extracted ion chromatogram.
The slope value (k) was determined by linear fitting of the natural logarithm of drug elimination percentage over time.

KRAS G12C protein = target: T1, KRAS G12C protein (Homo sapiens, UniProt P01116, G12C); assay: ERK protein phosphorylation assay (p-ERK) in H358 cells; type: cell-based; design: scale not given here; conditions: H358 cells expressing KRAS G12C protein, 3 h incubation with compound; read-out: IC50, inhibiting phosphorylation of KRAS G12C protein-mediated downstream signaling (p-ERK)
T1 construct: H358 cells (ATCC, CRL-5807) expressing KRAS G12C protein; host or cells: H358 (NCI-H358) cells
Protocol: The cells were cultured in a 5% CO2 cell incubator for 16 h. The serially diluted compound was added to the cell medium with Echo550 at a final DMSO concentration of 0.5%, and the incubation was continued for 3 h. Then 8% paraformaldehyde (Solarbio, P1112) was added at 40 μL/well, followed by incubation at room temperature for 20 min. After one washing with PBS, cold 100% methanol was added at 40 μL/well for permeabilization for 10 min. […] Washing with PBST was performed 3 times, with 2 min of incubation for each washing. […] Washing with PBST was performed 3 times, with 2 min of incubation for each washing. Finally, the cell culture plate was inverted and centrifuged at 1000 rpm for 1 min, after which fluorescence signals were read using Odyssey CLx.

[1] = Stability test in human plasma
Protocol: To examine the stability of the test compounds in plasma, representative compounds were selected for evaluation.
Preparation of stock solution: a test compound was dissolved in DMSO to prepare a 1 mM stock solution for later use; Propantheline Bromide was dissolved in acetonitrile to prepare a 1 mM stock solution as a positive control for later use.
To each well was added 2 μL of the stock solution of the test compound and the stock solution of the positive control such that the final concentrations were 5 KM and the concentration of the organic solvent was 0.5%. Each compound was prepared in duplicate, followed by incubation at 37° C. 50 μL of samples were taken from the reaction samples in equal amounts at 0, 30, 60, 120, 180 and 240 minutes, and 450 μL of cold acetonitrile containing an internal standard was added to terminate the reaction. […] 100 μL of the supernatants were transferred to a new plate, dilute with ultra-pure water, and analyzed by LC-MS/MS.
Data results were calculated according to peak area ratios.
The percentage of remaining compound for each time point was calculated as follows:
Remaining percentagemin(%)=peak area ratiosmin/peak area ratiomin×100%
where peak area ratios represents the peak area ratio of the test compound to the internal standard compound at t min; peak area ratiomin represents the peak area ratio of the test compound to the internal standard compound at 0 min (initial).

T1 sequence (P01116 1-188 isoform P01116-2 G12C): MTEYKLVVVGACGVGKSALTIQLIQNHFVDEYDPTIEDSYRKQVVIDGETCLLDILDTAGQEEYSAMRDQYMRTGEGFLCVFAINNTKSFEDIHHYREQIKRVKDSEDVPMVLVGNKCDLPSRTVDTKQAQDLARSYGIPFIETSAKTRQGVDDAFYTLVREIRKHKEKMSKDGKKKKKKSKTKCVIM

SMILES: C=CC(=O)N1CCN(c2nc(OC[C@@H]3CCCN3[13CH3])nc3c2CCN(c2cccc4cccc(C)c24)C3)C[C@@H]1CC#N [Compound 26, 2-((S)-1-acryloyl-4-(2-(((S)-1-(methyl-^13C)pyrrolidin-2-yl)methoxy)-7-(8-methylnaphthalen-1-yl)-5,6,7,8-tetrahydropyrido[3,4-d]pyrimidin-4-yl)piperazin-2-yl)acetonitrile]
IC50 (KRAS G12C protein): < 1000 nM

SMILES: [2H]C([2H])([2H])N1CCC[C@H]1COc1nc2c(c(N3CCN(C(=O)C(=C)F)[C@@H](CC#N)C3)n1)CCN(c1cccc3cccc([14CH3])c13)C2 [Compound 29, 2-((S)-1-(2-fluoroacryloyl)-4-(2-(((S)-1-(methyl-d3)pyrrolidin-2-yl)methoxy)-7-(8-(methyl-^14C)naphthalen-1-yl)-5,6,7,8-tetrahydropyrido[3,4-d]pyrimidin-4-yl)piperazin-2-yl)acetonitrile]
IC50 (KRAS G12C protein): < 1000 nM

SMILES: [2H]C([2H])([2H])CN1CCC[C@H]1COc1nc2c(c(N3CCN(C(=O)C=C)[C@@H](CC#N)C3)n1)CCN(c1cccc3cccc(C)c13)C2 [Compound 33, 2-((S)-1-acryloyl-4-(2-(((S)-1-(ethyl-2,2,2-d3)pyrrolidin-2-yl)methoxy)-7-(8-methylnaphthalen-1-yl)-5,6,7,8-tetrahydropyrido[3,4-d]pyrimidin-4-yl)piperazin-2-yl)acetonitrile]
IC50 (KRAS G12C protein): < 1000 nM

SMILES: [2H]C([2H])([2H])C([2H])([2H])N1CCC[C@H]1COc1nc2c(c(N3CCN(C(=O)C=C)[C@@H](CC#N)C3)n1)CCN(c1cccc3cccc(C)c13)C2 [Compound 35, 2-((S)-1-acryloyl-4-(2-(((S)-1-(ethyl-d5)pyrrolidin-2-yl)methoxy)-7-(8-methylnaphthalen-1-yl)-5,6,7,8-tetrahydropyrido[3,4-d]pyrimidin-4-yl)piperazin-2-yl)acetonitrile]
IC50 (KRAS G12C protein): < 1000 nM

SMILES: [2H]C([2H])([2H])C([2H])(N1CCC[C@H]1COc1nc2c(c(N3CCN(C(=O)C=C)[C@@H](CC#N)C3)n1)CCN(c1cccc3cccc(C)c13)C2)C([2H])([2H])[2H] [Compound 37, 2-((S)-1-acryloyl-4-(7-(8-methylnaphthalen-1-yl)-2-(((S)-1-(isopropyl-d7)pyrrolidin-2-yl)methoxy)-5,6,7,8-tetrahydropyrido[3,4-d]pyrimidin-4-yl)piperazin-2-yl)acetonitrile]
IC50 (KRAS G12C protein): < 1000 nM

SMILES: C=CC(=O)N1CCN(c2nc(OC[C@@H]3CCCN3[14CH3])nc3c2CCN(c2cccc4cccc(C)c24)C3)C[C@@H]1CC#N [Compound 39, 2-((S)-1-acryloyl-4-(2-(((S)-1-(methyl-^14C)pyrrolidin-2-yl)methoxy)-7-(8-methylnaphthalen-1-yl)-5,6,7,8-tetrahydropyrido[3,4-d]pyrimidin-4-yl)piperazin-2-yl)acetonitrile]
IC50 (KRAS G12C protein): < 1000 nM

SMILES: CC(C)[N+](C)(CCOC(=O)C1c2ccccc2Oc2ccccc21)C(C)C [Propantheline Bromide, reference compound]
Remaining percentage (%) 0 min ([1]; human plasma, 37° C., 0 min): 100.00%
Remaining percentage (%) 30 min ([1]; human plasma, 37° C., 30 min): 33.35%
Remaining percentage (%) 60 min ([1]; human plasma, 37° C., 60 min): 7.71%
Remaining percentage (%) 120 min ([1]; human plasma, 37° C., 120 min): 0.15%
Remaining percentage (%) 180 min ([1]; human plasma, 37° C., 180 min): BLOD
Remaining percentage (%) 240 min ([1]; human plasma, 37° C., 240 min): BLOD
half-life at 5 μM ([1]; human, plasma): 19 min

The remaining lines, values ahead:

half-life at 1 μM (in vitro; ICR (CD-1), mouse): 12.3 min
microsomal CLint at 1 μM (in vitro; ICR (CD-1), mouse): 113 µL/min/mg
half-life at 1 μM (in vitro; human): 19.3 min
microsomal CLint at 1 μM (in vitro; human): 72 µL/min/mg
SMILES: [2H]C([2H])([2H])N1CCC[C@H]1COc1nc2c(c(N3CCN(C(=O)C(=C)F)[C@@H](CC#N)C3)n1)CCN(c1cccc3cccc(Cl)c13)C2 [Compound 18, 2-((S)-4-(7-(8-chloronaphthalen-1-yl)-2-(((S)-1-(methyl-d3)pyrrolidin-2-yl)methoxy)-5,6,7,8-tetrahydropyrido[3,4-d]pyrimidin-4-yl)-1-(2-fluoroacryloyl)piperazin-2-yl)acetonitrile]

IC50 (KRAS G12C protein): < 1000 nM
SMILES: C=CC(=O)N1CCN(c2nc(OC[C@@H]3CCCN3[11CH3])nc3c2CCN(c2cccc4cccc(C)c24)C3)C[C@@H]1CC#N [Compound 25, 2-((S)-1-acryloyl-4-(2-(((S)-1-(methyl-^11C)pyrrolidin-2-yl)methoxy)-7-(8-methylnaphthalen-1-yl)-5,6,7,8-tetrahydropyrido[3,4-d]pyrimidin-4-yl)piperazin-2-yl)acetonitrile]

IC50 (KRAS G12C protein): < 1000 nM
SMILES: [2H]C([2H])([2H])N1CCC[C@H]1COc1nc2c(c(N3CCN(C(=O)C=C)[C@@H](CC#N)C3)n1)CCN(c1cncc3cccc(C)c13)C2 [Compound 30, 2-((S)-1-acryloyl-4-(2-(((S)-1-(methyl-d3)pyrrolidin-2-yl)methoxy)-7-(5-methylisoquinolin-4-yl)-5,6,7,8-tetrahydropyrido[3,4-d]pyrimidin-4-yl)piperazin-2-yl)acetonitrile]

IC50 (KRAS G12C protein): < 1000 nM
SMILES: [2H]C([2H])([2H])N1CCC[C@H]1COc1nc2c(c(N3CCN(C(=O)C=C)[C@@H](CC#N)C3)n1)CCN(c1cncc3cccc([13CH3])c13)C2 [Compound 31, 2-((S)-1-acryloyl-4-(2-(((S)-1-(methyl-d3)pyrrolidine-2-yl)methoxy)-7-(5-(methyl-^13C)isoquinolin-4-yl)-5,6,7,8-tetrahydropyrido[3,4-d]pyrimidin-4-yl)piperazin-2-yl)acetonitrile]

IC50 (KRAS G12C protein): < 1000 nM
SMILES: [2H]C([2H])([2H])N1CCC[C@H]1COc1nc2c(c(N3CCN(C(=O)C=C)[C@@H](CC#N)C3)n1)CCN(c1cncc3cccc([14CH3])c13)C2 [Compound 32, 2-((S)-1-acryloyl-4-(2-(((S)-1-(methyl-d3)pyrrolidine-2-yl)methoxy)-7-(5-(methyl-^14C)isoquinolin-4-yl)-5,6,7,8-tetrahydropyrido[3,4-d]pyrimidin-4-yl)piperazin-2-yl)acetonitrile]

IC50 (KRAS G12C protein): < 1000 nM
SMILES: [2H]C([2H])([2H])CN1CCC[C@H]1COc1nc2c(c(N3CCN(C(=O)C=C)[C@@H](CC#N)C3)n1)CCN(c1cccc3cccc(Cl)c13)C2 [Compound 34, 2-((S)-1-acryloyl-4-(7-(8-chloronaphthalene-1-yl)-2-(((S)-1-(ethyl-2,2,2-d3)pyrrolidin-2-yl)methoxy)-5,6,7,8-tetrahydropyrido[3,4-d]pyrimidin-4-yl)piperazin-2-yl)acetonitrile]

IC50 (KRAS G12C protein): < 1000 nM
SMILES: [2H]C([2H])([2H])C([2H])([2H])N1CCC[C@H]1COc1nc2c(c(N3CCN(C(=O)C=C)[C@@H](CC#N)C3)n1)CCN(c1cccc3cccc(Cl)c13)C2 [Compound 36, 2-((S)-1-acryloyl-4-(7-(8-chloronaphthalene-1-yl)-2-(((S)-1-(ethyl-d5)pyrrolidin-2-yl)methoxy)-5,6,7,8-tetrahydropyrido[3,4-d]pyrimidin-4-yl)piperazin-2-yl)acetonitrile]

IC50 (KRAS G12C protein): < 1000 nM
SMILES: [2H]C([2H])([2H])C([2H])(N1CCC[C@H]1COc1nc2c(c(N3CCN(C(=O)C=C)[C@@H](CC#N)C3)n1)CCN(c1cccc3cccc(Cl)c13)C2)C([2H])([2H])[2H] [Compound 38, 2-((S)-1-acryloyl-4-(7-(8-chloronaphthalene-1-yl)-2-(((S)-1-(isopropyl-d7)pyrrolidin-2-yl)methoxy)-5,6,7,8-tetrahydropyrido[3,4-d]pyrimidin-4-yl)piperazin-2-yl)acetonitrile]

half-life at 1 μM (in vitro; ICR (CD-1), mouse): 10 min
microsomal CLint at 1 μM (in vitro; ICR (CD-1), mouse): 139 µL/min/mg
half-life at 1 μM (in vitro; human): 19.8 min
microsomal CLint at 1 μM (in vitro; human): 70.2 µL/min/mg
SMILES: C=C(F)C(=O)N1CCN(c2nc(OC[C@@H]3CCCN3C)nc3c2CCN(c2cccc4cccc(Cl)c24)C3)C[C@@H]1CC#N [MRTX849, reference compound]
